# Laboratory results reported in article PMC7801115, “Preclinical in vitro screening of newly synthesised amidino substituted benzimidazoles and benzothiazoles” (Journal of Enzyme Inhibition and Medicinal Chemistry, 2021).
# How the values were obtained:
# [1] = tested on: P-glycoprotein (human MDR1); test: MDCKII-MDR1 permeability and P-glycoprotein substrate assay; format: in vitro ADME, canine cells over-expressing human MDR1; conditions: dog; for efflux ratio at 60 min, 10 µM: MDCK-MDR1, pH 7.4, without P-gp inhibitor; for Papp A→B at 60 min, 10 µM / Papp B→A at 60 min, 10 µM: MDCK-MDR1, pH 7.4, without P-gp inhibitor; for Papp A→B at 60 min, 10 µM: read-out: MDCKII-MDR1 Papp(A2B); for Papp B→A at 60 min, 10 µM: read-out: MDCKII-MDR1 Papp(B2A)
# Procedure: (§1) Permeability and P-glycoprotein substrate assessment was done on MDCKII-hMDR1, Madin-Darby canine epithelial cells over-expressing human MDR1 gene, coding for P-glycoprotein.
# (§2) Cells were prepared for transport studies by seeding on 96-well cell culture inserts (Millipore, MA, USA) in a concentration of 0.25 × 10^6 cells per ml. The cells were fed with fresh medium 24 h post seeding and cultured to confluence for 3 days before use. On the day of experiment, the cell monolayers were washed and equilibrated with transport medium (DPBS, pH 7.4 containing 1% DMSO) with or without P-gp specific inhibitor, elacridar (2 µM) for 45 min (37 °C, 5% CO2, 95% humidity). Test compound solution consisted of test substance (10 μM) in D-PBS medium containing lucifer yellow (100 μM) and 1% DMSO. Transport assays were conducted in apical to basolateral (A2B) and basolateral to apical (B2A) directions, respectively. Monolayers were incubated with the compound solution for 60 min at 37 °C under gentle agitation. Apical and basolateral compartments were sampled at the end of the transport experiment, while donor solutions were also sampled at the beginning of the experiment in order to determine initial concentration. Test substance concentrations in both compartments were determined by LC-MS/MS. There were several controls used in the assay: 1) amprenavir (0.5 μM) served as a low permeable control, being also a P-gp substrate; 2) diclofenac (10 μM) was used as a high permeable control; 3) Lucifer yellow, a fluorescent marker for the paracellular membrane transport, was used as a control of cell monolayer integrity.
# (§3) All ADME samples were analysed on a Sciex API 4000 or Sciex API4500 Triple Quadrupole Mass Spectrometer (Sciex, Framingham, MA, USA) coupled to a UHPLC System (Shimadzu Nexera X2; Shimadzu, Kyoto, Japan). Samples were injected onto an UPLC column (HALO2 C18, 2.1 × 20 mm, 2 µm or Phenomenex Luna Omega Polar C18, 30 × 2.1 mm, 1.6 µm) and eluted with a gradient at temperature of 50 °C. The mobile phase was composed of acetonitrile (with 0.1% formic acid) and 0.1% formic acid in deionised water. A total run time was 1 or 1.5 min, with the flow rate of 0.7 ml/min (under gradient conditions). A positive ion mode with turbo spray, an ion source temperature of 500 °C and a dwell time of 150 ms were utilised for mass spectrometric detection. Multiple reaction monitoring (MRM) was used at the specific transitions for each compound/control tested: compound 5c: 361.9 → 304.9; compound 5d: 344.8 → 287.9; compound 5e: 349.8 → 292.9; compound 5 g: 350.8 → 293.9; compound 5 h: 344.0 → 286.9; compound 6a: 276.9 → 220.0; compound 5 b: 319.0 → 262.0; compound 6 b: 302.1 → 245.1; compound 6c: 344.9 → 288.0; compound 6d: 333.0 → 276.0; compound 6e: 316.1 → 259.0; compound 6f: 327.1 → 270.0; compound 6 g: 377.1 → 320.1; testosterone: 289.3→ 97.1; propranolol: 260.1 → 182.8; caffeine: 195.2 → 138.1; acebutolol: 337.2 → 116.2, nicardipine: 480.2 → 315.0; verapamil: 455.4 → 165.1; amprenavir: 506.2 → 245.4; diclofenac: 296.1 → 213.7 or 296.2 → 215.3; eucatropine: 292.2 → 109.1; benfluorex: 352.1 → 230.3, and warfarin: 309.2 → 163.2
# MDCKII-hMDR1 cells = test: as above; format: in vitro ADME, canine cells over-expressing human MDR1; conditions: without P-gp inhibitor
# Procedure: as §1, §2, §3
melting point [°C],"efflux ratio at 60 min, 10 µM [1]","Papp A→B at 60 min, 10 µM [1] [×10⁻⁶ cm/s]","Papp B→A at 60 min, 10 µM [1] [×10⁻⁶ cm/s]",MDCKII-MDR1 Efflux ratio (MDCKII-hMDR1 cells),Compound
> 300,35.4,0.59,20.5,,"Cl.N#Cc1ccc(-c2nc3ccc(C4=NCCCN4)cc3s2)cc1 [Compound 5b, 2–(4-Cyanophenyl)-6–(3,4,5,6-tetrahydropyrimidin-1-ium-2-yl)benzothiazole chloride]"
> 300,> 77,< 0.1,7.7,,"Cl.c1ccc2cc(-c3nc4ccc(C5=NCCCN5)cc4s3)ccc2c1 [Compound 5h, 2-(Naphthalene-2-yl)-6–(3,4,5,6-tetrahydropyrimidin-1-ium-2-yl)benzothiazole chloride]"
,3.89,0.57,2.17,,"c1ccc2c(-c3nc4ccc(C5=NCCCN5)cc4[nH]3)c[nH]c2c1 [Compound 6e, 2-(1H-Indol-3-yl)-5(6)–(3,4,5,6-tetrahydropyrimidin-1-ium-2-yl)benzimidazole chloride]"
> 300,> 78,< 0.1,7.6,,"Cl.c1ccc2sc(-c3nc4ccc(C5=NCCCN5)cc4s3)cc2c1 [Compound 5e, 2-(Benzo[b]thiophen-2-yl)-6–(3,4,5,6-tetrahydropyrimidin-1-ium-2-yl)benzothiazole chloride]"
279 to 283,> 200,< 0.1,21.5,,"Cl.FC(F)(F)c1ccc(-c2nc3ccc(C4=NCCCN4)cc3s2)cc1 [Compound 5c, 2–(4-Trifluoromethylphenyl)-6–(3,4,5,6-tetrahydropyrimidin-1-ium-2-yl)benzothiazole chloride]"
,3.7,0.4,1.4,,"c1ccc(-c2nc3cc(C4=NCCCN4)ccc3[nH]2)cc1 [Compound 6a, 2-Phenyl-5(6)–(3,4,5,6-tetrahydropyrimidin-1-ium-2-yl)benzimidazole chloride]"
> 300,> 158,< 0.1,15.8,,"Cl.c1ccc2nc(-c3nc4ccc(C5=NCCCN5)cc4s3)ccc2c1 [Compound 5d, 2-(Quinoline-2-yl)-6–(3,4,5,6-tetrahydropyrimidin-1-ium-2-yl)benzothiazole chloride]"
,< 2,0.92,1.02,1.13,"N#Cc1ccc(-c2nc3cc(C4=NCCCN4)ccc3[nH]2)cc1 [Compound 6b, 2–(4-Cyanophenyl)-5(6)–(3,4,5,6-tetrahydropyrimidin-1-ium-2-yl)benzimidazole chloride]"
,7.75,0.11,0.86,,"c1ccc2sc(-c3nc4cc(C5=NCCCN5)ccc4[nH]3)cc2c1 [Compound 6d, 2-(Benzo[b]thiophen-2-yl)-5(6)–(3,4,5,6-tetrahydropyrimidin-1-ium-2-yl)benzimidazole chloride]"
> 300,> 17,< 0.1,16.5,,"Cl.c1ccc2sc(-c3nc4ccc(C5=NCCCN5)cc4s3)nc2c1 [Compound 5g, 2-(Benzothiazole-2-yl)-6–(3,4,5,6-tetrahydropyrimidin-1-ium-2-yl)benzothiazole chloride]"
,3.23,0.78,2.49,,"c1ccc2cc(-c3nc4cc(C5=NCCCN5)ccc4[nH]3)ccc2c1 [Compound 6f, 2-(Naphthalene-2-yl)-5(6)–(3,4,5,6-tetrahydropyrimidin-1-ium-2-yl)benzimidazole chloride]"
,2.82,0.69,1.93,,"FC(F)(F)c1ccc(-c2nc3cc(C4=NCCCN4)ccc3[nH]2)cc1 [Compound 6c, 2–(4-Trifluoromethylphenyl)-5(6)–(3,4,5,6-tetrahydropyrimidin-1-ium-2-yl)benzimidazole chloride]"

Compound,melting point [°C],"efflux ratio at 60 min, 10 µM [1]","Papp A→B at 60 min, 10 µM [1] [×10⁻⁶ cm/s]","Papp B→A at 60 min, 10 µM [1] [×10⁻⁶ cm/s]",MDCKII-MDR1 Efflux ratio (MDCKII-hMDR1 cells)
"c1ccc2c(c1)cc(-c1nc3cc(C4=NCCCN4)ccc3[nH]1)c1ccccc12 [Compound 6g, 2-(Phenanthrene-9-yl)-5(6)–(3,4,5,6-tetrahydropyrimidin-1-ium-2-yl)benzimidazole chloride]",,6.6,0.02,0.2,
